Measurements reported in patent US4334067A, “Flavan compounds and acid addition salts thereof” (Maruko Seiyaku Co., Ltd., priority 1979, dated 1982).
Where a name gives a salt, the structure may show the parent alone.

Assays:
[1] = Acute toxicity; conditions: mouse, in vivo, 7 days observation
Protocol: […] After observing general conditions of mice for 7 days after administration, 50% lethal dose [LD50 (mg/kg)] was determined.

[2] = test system: ddY male mice; test: Anti-convulsive activity (pulse from corneal electrode); type: in vivo; conditions: 60 mg/kg intraperitoneally, 15 minutes before pulse; compared with Phenytoin 40 mg/kg
Protocol: The test compound was administered intraperitoneally to ddY male mice (weighing 20 to 25 g, 7 mice per group), and, 15 minutes thereafter, pulse (A.C. 100 V, 200 msec.) was applied to the mice from a corneal electrode, and the duration time of tonic flexor, tonic extensor and clonic convulsion were determined.

[3] = test system: Wistar male rats; test: Anti-arrhythmic activity (aconitine-induced arrhythmia); type: in vivo; conditions: 10 mg/kg, 10 minutes before aconitine; compared with Ajmaline 5 mg/kg
Protocol: An aqueous solution of aconitine was injected continuously at a rate of 3 μg/kg/minute to Wistar male rats (weighing 220 to 270 g, five rats per group) through a polyethylene cannula inserted into the femoral vein. The test compounds were administered 10 minutes before the administration of aconitine.
The cardiac arrhythmia was determined by electrocardiographic recording of II lead on the limbs and the generation of descending large QRS complex was taken as the ventricular extrasystole and the observation was conducted until ventricular fibrillation was produced.

[4] = test system: Wistar male rats; test: Diuretic activity; type: in vivo; conditions: oral, urine collected 5 hours, control = 1.0
Protocol: Wistar male rats (weighing 200 to 250 g, 9 rats per group) fasted 18 hours before the test but freely received drinking water were used. A 0.9% (by weight) physiological saline solution containing the test compound was orally charged through a stomach tube in an amount of 3 ml/100 g of body weight. Immediately thereafter, the rats were placed in a stainless steel cage and the urine was collected during a period of 5 hours after the administration and the urine volume was measured.

[5] = test system: BALB/C type male mice; test: Anti-ulcerous activity (restraint water-immersion stress ulcer); type: in vivo; conditions: for Ulcerous Index: control 54.4 mm; for % Inhibition: inhibition of stress ulcer versus control
Protocol: BALB/C type male mice weighing about 20 g which fasted for 17 hours before the test were placed in a poly(vinyl chloride) cyclindrical restraint cage having an inside diameter of 35 mm and the mice were immersed in water at 15° C. to the level of xiphisternum of mice for a period of 5 hours. Immediately thereafter, stomach was extracted and 1 ml of 0.5% (by weight) formalin solution was injected into the stomach. After fixing for about 10 minutes, the stomach was incised along the greater curvature thereof and the ulcer generated was obserbed by a stereoscopic microcope.

SMILES	LD50 at 168 h ([1]; iv)	LD50 at 168 h ([1]; po)	anti-convulsive activity [2]	activity for prolonging the time required for producing the cardiac arrhythmia [3]	Volume Ratio of Urine ([4]; 100 mg/kg)	Volume Ratio of Urine ([4]; 50 mg/kg)	Ulcerous Index ([5]; 10 mg/kg)	% Inhibition ([5]; 10 mg/kg)	Ulcerous Index ([5]; 50 mg/kg)	% Inhibition ([5]; 50 mg/kg)
CCN(CC)CCN[C@H]1c2ccccc2O[C@H](c2ccc(OC)cc2)[C@@H]1O (relative stereo) [Compound A, 2,3-cis-3,4-trans-4-(2-diethylaminoethylamino)-4'-methoxyflavan-3-ol dimaleate]	1000 mg/kg	2000 mg/kg	comparable to that of Phenytoin							
COc1ccc([C@H]2Oc3ccccc3[C@H](N3CCN(C)CC3)[C@H]2O)cc1 (relative stereo) [Compound B, 2,3-cis-3,4-trans-4'-methoxy-4-(4-methylpiperazin-1-yl)flavan-3-ol dimaleate]	1000 mg/kg	2000 mg/kg	comparable to that of Phenytoin	superior to Ajmaline						
COc1ccc([C@H]2Oc3ccccc3[C@H](NCCCN3CCOCC3)[C@H]2O)cc1 (relative stereo) [Compound C, 2,3-cis-3,4-trans-4'-methoxy-4-(3-morpholinopropylamino)flavan-3-ol dimaleate]	500 mg/kg	1500 mg/kg	comparable to that of Phenytoin		2.1					
COc1ccc([C@H]2Oc3ccccc3[C@H](NCCCN(C)C)[C@H]2O)cc1 (relative stereo) [Compound D, 2,3-cis-3,4-trans-4-(3-dimethylaminopropylamino)-4'-methoxyflavan-3-ol]	1000 mg/kg	1500 mg/kg								
O[C@H]1[C@H](c2ccccc2)Oc2ccccc2[C@@H]1N1CCCCC1 (relative stereo) [Compound E, 2,3-trans-3,4-trans-4-piperidinoflavan-3-ol maleate]	1000 mg/kg	1500 mg/kg	comparable to that of Phenytoin		2.8					
CN1CCN([C@H]2c3ccccc3O[C@@H](c3ccccc3)[C@@H]2O)CC1 (relative stereo) [Compound F, 2,3-trans-3,4-trans-4-(4-methylpiperazin-1-yl)flavan-3-ol dimaleate]	300 mg/kg	300 mg/kg			2.2					
CC(=O)O[C@H]1[C@H](c2ccccc2)Oc2ccccc2[C@@H]1N1CCN(C)CC1 (relative stereo) [Compound G, 2,3-trans-3,4-trans-3-acetoxy-4-(4-methylpiperazin-1-yl)flavan dimaleate]	300 mg/kg	1000 mg/kg				3.0	37.6 mm	30.8%	14.3 mm	73.7%
CN(C)CCN[C@H]1c2ccccc2O[C@@H](c2ccccc2)[C@@H]1O (relative stereo) [Compound H, 2,3-trans-3,4-trans-4-(2-dimethylaminoethylamino)-flavan-3-ol dimaleate]	300 mg/kg	300 mg/kg		superior to Ajmaline						
CN1[C@@H]2CC[C@H]1C[C@@H](OC(=O)C(CO)c1ccccc1)C2 (some centres unmarked) [Atropine Sulfate, reference compound]							30.7 mm	43.8%		
